In PubChem BioAssay (NCI):
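All cell lines were grown in 96-well plates and treated with compound for 48 hours. GI50 = concentration required for 50% inhibition of growth. TGI marks complete inhibition of growth.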

Legend:
Assay in all cases: NCI anticancer screen, dose series, 48 h
A549 NSCLC = tested on: A549 NSCLC
CAKI-1 renal = tested on: CAKI-1 renal
COLO 205 colon = tested on: COLO 205 colon
HCC-2998 colon = tested on: HCC-2998 colon
HS 578T breast = tested on: HS 578T breast
LOX IMVI melanoma = tested on: LOX IMVI melanoma
NCI-H522 lung = tested on: NCI-H522 lung
SF-295 CNS = tested on: SF-295 CNS
UACC-257 melanoma = tested on: UACC-257 melanoma
BT-549 breast = tested on: BT-549 breast

| SMILES | TGI (A549 NSCLC) | TGI (CAKI-1 renal) | TGI (COLO 205 colon) | TGI (HCC-2998 colon) | TGI (HS 578T breast) | TGI (LOX IMVI melanoma) | TGI (NCI-H522 lung) | TGI (SF-295 CNS) | TGI (UACC-257 melanoma) | TGI (BT-549 breast) | GI50 (A549 NSCLC) | GI50 (BT-549 breast) | GI50 (CAKI-1 renal) | GI50 (COLO 205 colon) | GI50 (HCC-2998 colon) | GI50 (HS 578T breast) | GI50 (LOX IMVI melanoma) | GI50 (SF-295 CNS) | GI50 (UACC-257 melanoma) |
| --- | --- | --- | --- | --- | --- | --- | --- | --- | --- | --- | --- | --- | --- | --- | --- | --- | --- | --- | --- |
| N#Cc1sc2c(c1OC(=O)c1ccc(C(F)(F)F)cc1)c(=O)n(-c1ccccc1)c(=S)n2-c1ccccc1 | > 100 µM | 90.9 µM | 46.4 µM | > 100 µM | 91.7 µM | 59.9 µM | 3.51 µM | 71.4 µM | > 100 µM |  |  |  |  |  |  |  |  |  |  |
| CC1(C)CCc2c(ccc(C(=O)/C=C/c3ccc(O)cc3)c2O)O1 | 25.8 µM | 15.8 µM | 20.7 µM |  | 27.2 µM | 19.8 µM |  | 26.1 µM | 23.4 µM | 22.3 µM |  |  |  |  |  |  |  |  |  |
| C=CCn1c(=O)ccn(/C(=C/C(=O)OCC)C(=O)OCC)c1=O | 32.3 µM | 4.19 µM | 3.97 µM | 31.8 µM | 73.4 µM | 18.1 µM | 7.57 µM | > 87.7 µM | 28.7 µM | 29.3 µM |  |  |  |  |  |  |  |  |  |
| COc1ccc(/C=N/NC(=O)c2ccc(O)c(CN(C)C)c2)cc1 | > 100 µM | > 100 µM | > 100 µM | > 100 µM | > 100 µM | > 100 µM | 90.3 µM | > 100 µM | > 100 µM | > 100 µM |  |  |  |  |  |  |  |  |  |
| CO/N=C(/C(=O)OC)c1ccccc1COc1ccccc1C(F)(F)F | > 100 µM | > 100 µM | > 100 µM | > 100 µM | > 100 µM |  | 56.3 µM | > 100 µM | 88.7 µM | > 100 µM |  |  |  |  |  |  |  |  |  |
| CCc1n[nH]c(=O)n1-c1ccc2ccccc2c1 | > 100 µM | > 100 µM | > 100 µM | > 100 µM | > 100 µM | > 100 µM | > 100 µM | > 100 µM | > 100 µM |  |  |  |  |  |  |  |  |  |  |
| COC1OC2COC(c3ccccc3)OC2C(O)C1OC(=S)c1ccccc1 (centres undefined) | > 100 µM | 80.4 µM | 33 µM |  | > 100 µM | 21.4 µM |  | > 100 µM | > 100 µM | > 100 µM |  |  |  |  |  |  |  |  |  |
| COc1cc2c(cc1OCCCCCN1CCN(c3ncnc4ccccc34)CC1)N=CC1CCCN1C2=O (centres undefined) | 25.8 µM | 1.17 µM | 0.0408 µM | 0.0349 µM | 0.0842 µM |  | 0.0269 µM | 0.0671 µM | 0.568 µM | 0.0628 µM | 0.0307 µM | 0.0229 µM | 0.0292 µM | 0.0187 µM | 0.0178 µM | 0.0275 µM | 0.0167 µM | 0.0226 µM | 0.0738 µM |
| CCOC(=O)CC/C(=N/Nc1ccc(Cl)cc1[N+](=O)[O-])C(=O)OCC | > 100 µM |  | > 100 µM | 71.5 µM | > 100 µM | > 100 µM | > 100 µM | > 100 µM | > 100 µM | > 100 µM |  |  |  |  |  |  |  |  |  |
| C=C(C)[C@H]1C2=CC(C(=O)OC)=C(C[C@H](C(=C)C)[C@@H](O)[C@@H](O)C3=C[C@H]1OC3=O)O2 | > 100 µM | > 100 µM | > 100 µM |  | > 100 µM | > 100 µM | > 100 µM | > 100 µM | > 100 µM | > 100 µM |  |  |  |  |  |  |  |  |  |
| O=C(c1ccccc1)c1ccc2c(c1)NC(=O)c1ccccc1SSc1ccccc1C(=O)N2 | > 100 µM | > 100 µM | > 100 µM |  | > 100 µM | > 100 µM | > 100 µM | > 100 µM | > 100 µM | > 100 µM |  |  |  |  |  |  |  |  |  |
| COc1cc2c(cc1OCCCN1C(=O)c3cccc4cccc(c34)C1=O)N=C[C@@H]1CCCN1C2=O | > 100 µM | > 58.1 µM | 40.6 µM | > 100 µM |  | > 100 µM | 27.9 µM | > 100 µM | > 100 µM | > 100 µM |  |  |  |  |  |  |  |  |  |
| O=C(OCC(Cl)(Cl)Cl)N1CC[C@H](C2CCCCC2)C1 | 36.1 µM | 88.9 µM | 39 µM | 34.3 µM |  | 41.1 µM | 32.5 µM | 31.5 µM | 38.7 µM | 53.9 µM |  |  |  |  |  |  |  |  |  |
| CC1OC(O[C@H]2C3C=CO[C@@H](OC4OC(CO)C(O)C(O)C4O)C3[C@@]3(COC(=O)/C=C/c4ccccc4)O[C@@H]23)C(O)C(O)C1O (some centres undefined) | > 100 µM | > 100 µM | > 100 µM | > 100 µM | > 100 µM | > 100 µM | > 100 µM | > 100 µM | > 100 µM | > 100 µM |  |  |  |  |  |  |  |  |  |
| COc1cccc2c1OC(c1cccc3ccccc13)C([N+](=O)[O-])=C2 (centres undefined) | 3.75 µM | 5.02 µM | 5.72 µM |  | 11 µM |  | 3.21 µM | 4.56 µM | 4.42 µM | 2.74 µM |  |  |  |  |  |  |  |  |  |
| COc1cc(C=O)ccc1O | > 100 µM | > 100 µM | > 100 µM | > 100 µM | > 100 µM | > 100 µM | > 100 µM | > 100 µM | > 100 µM |  |  |  |  |  |  |  |  |  |  |
| O=C(NCCCl)O/N=C/c1cccnc1 | > 100 µM | > 100 µM | > 100 µM | > 100 µM |  | > 100 µM | > 100 µM | > 100 µM | > 100 µM |  |  |  |  |  |  |  |  |  |  |
| C=C1C(=O)[C@@]23CC[C@@H]4[C@@]5(C)CCC[C@@]4(OC5=O)[C@@]2(C)CC[C@@H]1C3 | 36.3 µM | 2.32 µM |  | 5.56 µM | > 54 µM | 2.96 µM | 2.43 µM | 20.9 µM | 4.06 µM | 3.24 µM |  |  |  |  |  |  |  |  |  |
| C=C(C)CNCCN | > 100 µM | > 100 µM |  |  | > 100 µM | > 100 µM | > 100 µM | > 100 µM | > 100 µM | > 100 µM |  |  |  |  |  |  |  |  |  |
| [N-]=[N+]=CC(=O)OC(CCl)CCl |  |  | > 100 µM | > 100 µM |  | > 100 µM | > 100 µM | > 100 µM | > 100 µM | > 100 µM |  |  |  |  |  |  |  |  |  |
| COc1ccc2oc(=N)c(C(=O)Nc3ccccc3)cc2c1 | > 100 µM | > 100 µM | > 100 µM |  | 39.6 µM | > 100 µM | 6.4 µM | 43.9 µM | > 100 µM | 43.8 µM |  |  |  |  |  |  |  |  |  |
